In PubChem BioAssay AID248 (DTP/NCI, 2004):
Values joined by “and” are separate entries in the source; they are usually repeats but may differ in a detail not shown here. Identical values can stand only once. Toxic doses and inconclusive results are not listed.

System: L1210 leukemia ip in BDF1 mice, survival T/C
Assay: NCI In Vivo Anticancer Drug Screen. Data for tumor model L1210 Leukemia (intraperitoneal) in B6D2F1 (BDF1) mice
Conditions: endpoint: mean survival time, higher = longer survival
Method in brief: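 Transplanted-tumor mice were given test agent; controls received vehicle only. Survival readings from the two groups were divided (treated over control).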

[1] = dose: 100.0 mg/kg/injection, schedule: Q04DX003 (ip), vehicle: saline
[2] = dose: 200.0 mg/kg/injection, schedule: Q04DX003 (ip), vehicle: saline
[3] = dose: 400.0 mg/kg/injection, schedule: Q04DX003 (ip), vehicle: saline
[4] = dose: 100.0 mg/kg/injection, schedule: Q01DX001 (ip), vehicle: Klucel (hydroxypropylcellulose) (HPC)
[5] = dose: 200.0 mg/kg/injection, schedule: Q01DX001 (ip), vehicle: Klucel (hydroxypropylcellulose) (HPC)
[6] = dose: 12.5 mg/kg/injection, schedule: Q04DX003 (ip), vehicle: saline
[7] = dose: 25.0 mg/kg/injection, schedule: Q04DX003 (ip), vehicle: saline
[8] = dose: 50.0 mg/kg/injection, schedule: Q04DX003 (ip), vehicle: saline
[9] = dose: 100.0 mg/kg/injection, schedule: Q04DX002 (ip), vehicle: Klucel (hydroxypropylcellulose) (HPC)
[10] = dose: 200.0 mg/kg/injection, schedule: Q04DX002 (ip), vehicle: Klucel (hydroxypropylcellulose) (HPC)
[11] = dose: 100.0 mg/kg/injection, schedule: Q04DX003 (ip), vehicle: Klucel (hydroxypropylcellulose) (HPC)
[12] = dose: 200.0 mg/kg/injection, schedule: Q04DX003 (ip), vehicle: Klucel (hydroxypropylcellulose) (HPC)
[13] = dose: 400.0 mg/kg/injection, schedule: Q04DX003 (ip), vehicle: Klucel (hydroxypropylcellulose) (HPC)
[14] = dose: 100.0 mg/kg/injection, schedule: Q01DX009 (ip), vehicle: Klucel (hydroxypropylcellulose) (HPC)
[15] = dose: 200.0 mg/kg/injection, schedule: Q01DX009 (ip), vehicle: Klucel (hydroxypropylcellulose) (HPC)
[16] = dose: 100.0 mg/kg/injection, schedule: Q01DX001 (ip), vehicle: saline
[17] = dose: 200.0 mg/kg/injection, schedule: Q01DX001 (ip), vehicle: saline

CCn1c(COc2cc(C)cc(C)c2)c(COC(=O)c2cccc(Cl)c2)c2ccccc21
T/C (dose: 50.0 mg/kg/injection, schedule: Q01DX009 (ip), vehicle: saline with Tween-80): 96 % of control | T/C (dose: 100.0 mg/kg/injection, schedule: Q01DX009 (ip), vehicle: saline with Tween-80): 86 % of control | T/C (dose: 200.0 mg/kg/injection, schedule: Q01DX009 (ip), vehicle: saline with Tween-80): 91 % of control

Nc1cncc([N+](=O)[O-])c1N
T/C [1]: 98 % of control | T/C [2]: 96 % of control | T/C [3]: 94 % of control

CCOC(=O)C(O)c1ccc[nH]1 (stereo unspecified)
T/C (dose: 100.0 mg/kg/injection, schedule: Q01DX001 (ip), vehicle: saline with Tween-80): 115 % of control | T/C (dose: 100.0 mg/kg/injection, schedule: Q04DX003 (ip), vehicle: saline with Tween-80): 89 % of control | T/C (dose: 200.0 mg/kg/injection, schedule: Q01DX001 (ip), vehicle: saline with Tween-80): 115 % of control | T/C (dose: 400.0 mg/kg/injection, schedule: Q01DX001 (ip), vehicle: saline with Tween-80): 111 % of control | T/C (dose: 400.0 mg/kg/injection, schedule: Q04DX003 (ip), vehicle: saline with Tween-80): 95 % of control

COC(=O)c1cn(C2OC(CO)C(O)C2O)c2ncnc(N)c12 (stereo unspecified)
T/C (dose: 20.0 mg/kg/injection, schedule: Q01DX001 (ip), vehicle: water): 108 % of control | T/C (dose: 40.0 mg/kg/injection, schedule: Q01DX001 (ip), vehicle: water): 89 % of control

CC(=O)OCC(=O)C1CCC2(C)C3=C(CCC12C)C1(C)CCC(=O)C(C)(C)C1CC3 (stereo unspecified)
T/C (dose: 50.0 mg/kg/injection, schedule: Q01DX001 (sc), vehicle: steriod suspending solution): 105 % of control | T/C (dose: 100.0 mg/kg/injection, schedule: Q01DX001 (sc), vehicle: steriod suspending solution): 94 % of control | T/C (dose: 200.0 mg/kg/injection, schedule: Q01DX001 (sc), vehicle: steriod suspending solution): 100 % of control | T/C (dose: 400.0 mg/kg/injection, schedule: Q01DX001 (sc), vehicle: steriod suspending solution): 100 % of control

Nc1ncnc(N)c1NC(=O)CCCc1ccc([N+](=O)[O-])cc1
T/C (dose: 50.0 mg/kg/injection, schedule: Q01DX001 (ip), vehicle: Klucel (hydroxypropylcellulose) (HPC)): 102 % of control | T/C [4]: 98 % of control | T/C [5]: 94 % of control

ClCCCN1CCCCC1CCl (stereo unspecified)
T/C (dose: 3.12 mg/kg/injection, schedule: Q01DX009 (ip), vehicle: saline): 114 % of control | T/C (dose: 6.25 mg/kg/injection, schedule: Q01DX009 (ip), vehicle: saline): 114 % of control | T/C (dose: 6.25 mg/kg/injection, schedule: Q04DX003 (ip), vehicle: saline): 111 % of control | T/C [6]: 111 % of control | T/C [7]: 150 % of control

CC1CN=C(c2ccc(NC(=O)NCCCCCCCCCCNC(=O)Nc3ccc(C4=NCC(C)N4)cc3)cc2)N1 (stereo unspecified)
T/C (dose: 5.0 mg/kg/injection, schedule: Q01DX015 (ip), vehicle: water): 96 % of control | T/C (dose: 10.0 mg/kg/injection, schedule: Q01DX015 (ip), vehicle: water): 102 % of control | T/C (dose: 20.0 mg/kg/injection, schedule: Q01DX015 (ip), vehicle: water): 103 % of control

COc1cc2ccc3cc[n+](C)cc3c2cc1OC
T/C [8]: 104 % of control | T/C (dose: 66.0 mg/kg/injection, schedule: Q01DX009 (ip), vehicle: saline): 121 % of control | T/C (dose: 100.0 mg/kg/injection, schedule: Q01DX009 (ip), vehicle: saline): 110 % of control | T/C [1]: 98 % of control and 104 % of control | T/C (dose: 150.0 mg/kg/injection, schedule: Q01DX009 (ip), vehicle: saline): 96 % of control | T/C [2]: 110 % of control | T/C [3]: 102 % of control

O=C(c1ccco1)C(O)c1ccco1 (stereo unspecified)
T/C [9]: 96 % of control | T/C [10]: 104 % of control

CN(C)c1ccc(/C=C/C(=O)Cc2ccccc2)cc1
T/C (dose: 1.56 mg/kg/injection, schedule: Q04DX002 (ip), vehicle: saline with Tween-80): 109 % of control | T/C (dose: 3.13 mg/kg/injection, schedule: Q04DX002 (ip), vehicle: saline with Tween-80): 103 % of control | T/C (dose: 6.25 mg/kg/injection, schedule: Q04DX002 (ip), vehicle: saline with Tween-80): 98 % of control | T/C (dose: 12.5 mg/kg/injection, schedule: Q04DX002 (ip), vehicle: saline with Tween-80): 95 % of control and 98 % of control | T/C (dose: 50.0 mg/kg/injection, schedule: Q04DX002 (ip), vehicle: saline with Tween-80): 104 % of control | T/C (dose: 100.0 mg/kg/injection, schedule: Q04DX002 (ip), vehicle: saline with Tween-80): 88 % of control

Cc1nc(-c2ccccc2)cc(=O)o1
T/C [11]: 102 % of control | T/C [12]: 102 % of control | T/C [13]: 98 % of control

O=C(NCCCl)Nc1ccc(Cl)c(Cl)c1
T/C (dose: 100.0 mg/kg/injection, schedule: Q01DX001 (ip), vehicle: carboxymethylcellulose (CMC)): 101 % of control | T/C [14]: 94 % of control | T/C (dose: 200.0 mg/kg/injection, schedule: Q01DX001 (ip), vehicle: carboxymethylcellulose (CMC)): 95 % of control | T/C [15]: 98 % of control | T/C (dose: 400.0 mg/kg/injection, schedule: Q01DX001 (ip), vehicle: carboxymethylcellulose (CMC)): 106 % of control

Cc1cccc(OCCOc2cccc(C)c2)c1
T/C [16]: 98 % of control | T/C [17]: 94 % of control

O=c1sc2c(s1)CCCC2
T/C [9]: 108 % of control | T/C [10]: 101 % of control | T/C (dose: 400.0 mg/kg/injection, schedule: Q04DX002 (ip), vehicle: Klucel (hydroxypropylcellulose) (HPC)): 92 % of control

CN1CN(c2ccccc2)C2(CCN(CCc3cc4ccccc4o3)CC2)C1=O
T/C [4]: 96 % of control | T/C [5]: 95 % of control | T/C (dose: 400.0 mg/kg/injection, schedule: Q01DX001 (ip), vehicle: Klucel (hydroxypropylcellulose) (HPC)): 101 % of control

ClC1=C2C=CC=CC2C(Cl)(c2ccccc2)C2C1=C(Cl)c1ccccc1C2(Cl)c1ccccc1 (stereo unspecified)
T/C (dose: 75.0 mg/kg/injection, schedule: Q01DX001 (ip), vehicle: saline): 95 % of control | T/C (dose: 150.0 mg/kg/injection, schedule: Q01DX001 (ip), vehicle: saline): 97 % of control | T/C (dose: 300.0 mg/kg/injection, schedule: Q01DX001 (ip), vehicle: saline): 90 % of control

O=c1cc(CO)occ1O.O=c1cc(CO)occ1O.[O]=[V]
T/C (dose: 4.0 mg/kg/injection, schedule: Q01DX015 (ip), vehicle: carboxymethylcellulose (CMC)): 101 % of control | T/C (dose: 8.0 mg/kg/injection, schedule: Q01DX015 (ip), vehicle: carboxymethylcellulose (CMC)): 105 % of control | T/C (dose: 12.5 mg/kg/injection, schedule: Q01DX009 (ip), vehicle: saline): 87 % of control | T/C [6]: 92 % of control | T/C (dose: 16.0 mg/kg/injection, schedule: Q01DX015 (ip), vehicle: carboxymethylcellulose (CMC)): 106 % of control | T/C (dose: 25.0 mg/kg/injection, schedule: Q01DX009 (ip), vehicle: saline): 92 % of control | T/C [7]: 91 % of control | T/C [8]: 102 % of control

O=S(=O)(n1ccnc1)C(F)(F)F
T/C (dose: 5.0 mg/kg/injection, schedule: Q01DX001 (ip), vehicle: saline): 102 % of control | T/C (dose: 10.0 mg/kg/injection, schedule: Q01DX001 (ip), vehicle: saline): 98 % of control | T/C (dose: 20.0 mg/kg/injection, schedule: Q01DX001 (ip), vehicle: saline): 102 % of control | T/C (dose: 40.0 mg/kg/injection, schedule: Q01DX001 (ip), vehicle: saline): 102 % of control

CCCCCCCCCCCCCCC(=O)c1ccccc1
T/C [14]: 100 % of control | T/C [11]: 105 % of control | T/C [15]: 102 % of control | T/C [12]: 102 % of control | T/C (dose: 400.0 mg/kg/injection, schedule: Q01DX009 (ip), vehicle: Klucel (hydroxypropylcellulose) (HPC)): 95 % of control | T/C [13]: 104 % of control

CNCc1nc2ccccc2c(C)[n+]1[O-]
T/C [1]: 97 % of control | T/C [2]: 97 % of control | T/C [3]: 95 % of control

CCSC(=N)N=Nc1ccc(O)cc1
T/C (dose: 50.0 mg/kg/injection, schedule: Q01DX001 (ip), vehicle: saline): 104 % of control | T/C [16]: 98 % of control | T/C [17]: 102 % of control
